Each structure is given as a SMILES string.

A word on the IC50: it is the concentration that inhibits the measured activity by half.

What all share (format): cell-based
Experiment [1] concerns UTP-stimulated Ca2+ response in HT-29 cells. The experiment in a line: Ca FLIPR TETRA assay, ANTAGONIST mode, activator 0.6 μM UTP. The conditions noted are these: Homo sapiens; HT-29 cells, activator 0.6 μM UTP. A digest of the protocol: (§1)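 Fluorescent Ca2+ dye (calcium 5) loading of overnight-plated HT-29 cells preceded compound addition and a 30 min room-temperature incubation. Responses to the specified activator concentration were then read by FLIPR Tetra in the same plate.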

For experiment [2], the target named is T1, PAR2 (HT-29 cells) (Homo sapiens, UniProt P55085).
T1 construct: host or cells: HT-29
T1 sequence (P55085 26-397): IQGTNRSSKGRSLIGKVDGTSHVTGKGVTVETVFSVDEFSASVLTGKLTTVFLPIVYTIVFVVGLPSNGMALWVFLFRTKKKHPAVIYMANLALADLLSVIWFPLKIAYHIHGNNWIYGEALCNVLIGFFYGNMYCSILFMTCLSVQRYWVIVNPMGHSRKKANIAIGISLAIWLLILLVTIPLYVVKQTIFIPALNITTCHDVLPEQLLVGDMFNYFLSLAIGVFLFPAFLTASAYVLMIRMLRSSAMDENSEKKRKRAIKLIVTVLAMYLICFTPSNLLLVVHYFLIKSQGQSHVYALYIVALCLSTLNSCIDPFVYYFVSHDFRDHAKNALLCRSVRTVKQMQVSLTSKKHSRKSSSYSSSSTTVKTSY
In words: Ca FLIPR TETRA assay, ANTAGONIST mode, activator 3.1 U/mL trypsin. Particulars: HT-29 cells; activator 3.1 U/mL trypsin; Method A: maximal concentration of antagonist 0.1, 1 or 2 μM. A digest of the protocol: as §1

Experiment [3] concerns Thrombin-stimulated Ca2+ response in HT-29 cells. The experiment in a line: Ca FLIPR TETRA assay, ANTAGONIST mode, activator 1 U/mL Thrombin. The conditions noted are these: Homo sapiens; HT-29 cells, activator 1 U/mL Thrombin. A digest of the protocol:
as §1

Experiment [4] concerns the target T1, PAR2 (HT-29 cells). In words: Ca FLIPR TETRA assay, ANTAGONIST mode, activator 8 μM SLIGKV. Particulars: HT-29 cells; activator 8 μM SLIGKV; Method A: maximal concentration of antagonist 0.1, 1 or 2 μM. An outline of the steps:
as §1

Turning to `CC(C)(C)c1cc(C2CC3(CCC3)C2)nc2cc(C(=O)N3CCN(c4ccc(C(=O)O)cn4)CC3(C)C)oc12` [Example I-443], the IC50 was 1600 nM in experiment [1], 0.6 nM in experiment [2], more than 2000 nM in experiment [3] and 0.5 nM in experiment [4].
Consider `CC(C)(C)c1cc(C2CC3(CCC3)C2)nc2cc(C(=O)N3CCN(C(=O)[C@@H]4CNCCO4)CC3(C)C)oc12` [Example I-444], for which the half-inhibitory concentration (IC50) was more than 2000 nM in experiment [1], 76 nM in experiment [2], more than 2000 nM in experiment [3] and 65 nM in experiment [4].
Consider `CC(C)(C)c1cc(C2CC3(CCC3)C2)nc2cc(C(=O)N3CCN(C(=O)[C@H]4CNCCO4)CC3(C)C)oc12` [Example I-445], for which the IC50 in experiment [1] was more than 2000 nM; in experiment [2] it was 260 nM; in experiment [3], more than 2000 nM; in experiment [4], 260 nM.
For the molecule `CC(C)(C)c1cc(C2CC3(CCC3)C2)nc2cc(C(=O)N3CCN(C(=O)[C@H]4COCCN4)CC3(C)C)oc12` [Example I-446], the concentration for half-maximal inhibition (IC50) in experiment [1] was more than 2000 nM; in experiment [2], 130 nM; in experiment [3], more than 2000 nM; in experiment [4], 106 nM.
Take `CC(C)(C)c1cc(C2CC3(CCC3)C2)nc2cc(C(=O)N3CCN(C(=O)[C@@H]4COCCN4)CC3(C)C)oc12` [Example I-447]: the IC50 in experiment [1] is more than 2000 nM; in experiment [2], 590 nM; in experiment [3], more than 2000 nM; in experiment [4] it was 460 nM.
For the molecule `CC1(C)CCC(c2cc(C(C)(C)C)c3oc(C(=O)N4CCN(c5nc(C(=O)O)co5)CC4(C)C)cc3n2)CC1` [Example I-450], the IC50 in experiment [1] is more than 1010 nM; in experiment [2], 0.8 nM; in experiment [3] it was more than 1010 nM; in experiment [4] it was 0.4 nM.
Regarding `CC1(C)CCC(c2cc(C(C)(C)C)c3oc(C(=O)N4CCN(c5cnc(C(=O)O)cn5)CC4(C)C)cc3n2)CC1` [Example I-451], the IC50 in experiment [1] is more than 2000 nM; in experiment [2], 5.9 nM; in experiment [3], more than 2000 nM; in experiment [4], 6.7 nM.
Regarding `CC(C)(C)c1cc(-c2ccc(Cl)cc2)nc2cc(C(=O)N3CCN(c4cnc(C(=O)O)cn4)CC3(C)C)oc12` [Example I-452], the IC50 is more than 2000 nM in experiment [1], 6.6 nM in experiment [2], more than 2000 nM in experiment [3] and 8.9 nM in experiment [4].
Take `CC(C)(C)c1cc(-c2ccc(F)cc2)nc2cc(C(=O)N3CCN(N4CCC(=O)NCC4(C)C)CC3(C)C)oc12` [Example I-453]: the 50% inhibitory concentration (IC50) in experiment [1] is more than 2000 nM; in experiment [2] it was 660 nM; in experiment [3], more than 2000 nM; in experiment [4], 450 nM.
For the molecule `CC(C)(C)c1cc(-c2ccc(F)cc2)nc2cc(C(=O)N3CCN(N4CCNC(=O)CC4(C)C)CC3(C)C)oc12` [Example I-454], the IC50 in experiment [1] was more than 2000 nM; in experiment [2], 67 nM; in experiment [3], more than 2000 nM; in experiment [4] it was 41 nM.
Take `CC1(C)CCC(c2cc(C(C)(C)C)c3oc(C(=O)N4CCN(c5nccc(C(=O)O)n5)CC4(C)C)cc3n2)CC1` [Example I-455]: the IC50 is 415 nM in experiment [1], 2.4 nM in experiment [2], 450 nM in experiment [3] and 1.2 nM in experiment [4].
`CC(C)(C)c1cc(-c2ccc(Cl)c(F)c2)nc2cc(C(=O)N3CCN(c4cnc(C(=O)O)cn4)CC3(C)C)oc12` [Example I-456]: the IC50 in experiment [1] is more than 2000 nM; in experiment [2] it was 4.2 nM; in experiment [3], more than 2000 nM; in experiment [4], 3.2 nM.
On to `CC(C)(C)c1cc(-c2ccc(Cl)cc2)nc2cc(C(=O)N3CCN(c4nccc(C(=O)O)n4)CC3(C)C)oc12` [Example I-457], for which the IC50 in experiment [1] was determined as 1500 nM; in experiment [2] it was 0.9 nM; in experiment [3], 1900 nM; in experiment [4], 0.8 nM.
On to `CC1(C)CCC(c2cc(C(C)(C)C)c3oc(C(=O)N4CCN(c5cccc(C(=O)O)n5)C(=O)C4(C)C)cc3n2)CC1` [Example I-458], for which the IC50 in experiment [1] worked out at 1190 nM; in experiment [2], 18 nM; in experiment [3], 1150 nM; in experiment [4], 8.7 nM.

(Values after US20180057505A1, “BICYCLIC HETEROARYL COMPOUNDS USEFUL AS INHIBITORS OF THE PAR-2 SIGNALING PATHWAY” (VERTEX PHARMACEUTICALS INCORPORATED, priority 2015, published 2018).)
